{"source": "paper PMC10664145", "about": "“Urinary Excretion of Mercapturic Acids of the Rodent Carcinogen Methyleugenol after a Single Meal of Basil Pesto: A Controlled Exposure Study in Humans” (Chemical Research in Toxicology, 2023)", "key": {"[1]": {"conditions": "cited from earlier work; for urinary metabolite of ME, share of the dose / urinary metabolite of ME in urine treated with glucuronidase/sulfatase, share of the dose: rat urine 24 h after oral ME 200 mg/kg"}, "[2]": {"conditions": "range over 12 experimental settings; ME 100, 200 or 500 μM; calculated from published data, molar units; cited from earlier work"}, "[3]": {"parameters": "method as in PMID 22610610, PMID 22445790", "conditions": "calculated from published data; cited from earlier work"}, "[4]": {"conditions": "range over five models (male and female Sprague–Dawley and Fischer 344 rats, pooled human); cited from earlier work"}, "[5]": {"conditions": "rat, in vivo", "description": "The metabolism of ME and its isomer, MIE, was also studied in rats in vivo.[27] Urine collected over a period of 24 h after oral administration of ME (200 mg/kg) contained a total of ten metabolites (each accounting for ≥1% of the dose); together, they represented 95% of the dose. Among the microsomal metabolites described in the preceding sections, only 6-hydroxy-ME was detected in native urine (2% of the dose). In human liver microsomes, it contributed 0–3.4% to the metabolism of ME, less than that in liver microsomes from other species [calculated from data published by Cartus et al.[11] and Al-Subeihi et al.[26]]. For this reason, and as 6-hydroxy-ME is not involved in bioactivation, it is not suited as a biomarker. Eugenol and chavibetol were found in urine treated with glucuronidase/sulfatase at levels of 7 and 4% of the dose, respectively. Obviously, these metabolites are not suited as biomarkers for exposure to ME, as they may also be found after exposure to eugenol and chavibetol. […] Although in this study, 95% of the dose of ME was recovered as metabolites in urine, metabolites were additionally detected in bile. […] Glutathione (GSH) conjugates and other metabolites of the mercapturic acid pathways were not detected in that study; however, the method used (extraction of the acidified urine or bile with ether followed by gas chromatography) was not suitable for their detection."}, "[6]": {"conditions": "human, in vivo; cited from earlier work"}, "DNA [7]": {"tested_on": "DNA", "conditions": "cited from earlier work"}, "[8]": {"tested_on": "primary cultures of rat hepatocytes", "conditions": "cited from earlier work"}, "human CYPs": {"tested_on": "human CYPs", "conditions": "cited from earlier work"}, "[9]": {"parameters": "method as in PMID 22445790", "conditions": "cited from earlier work"}, "SULT1A1": {"tested_on": "SULT1A1", "parameters": "method as in PMID 22337896", "conditions": "cited from earlier work"}, "DNA [10]": {"tested_on": "DNA", "conditions": "cited from earlier work", "remark": "listed apart in the source"}, "[11]": {"conditions": "n = 1; cited from earlier work"}, "[12]": {"test": "Controlled exposure study in humans: urinary excretion of E-3′-MEMA after a meal with 100 g basil pesto (1.7 mg ME), isotope-dilution LC–MS/MS", "type": "in vivo, human", "description": "Based on the findings of the pilot investigation, a more comprehensive (“main”) exposure study was performed. The study was conducted according to the guidelines of the Declaration of Helsinki and was approved by the ethics committee of the University of Potsdam under application number 4/2019. It was carried out at the Institute of Nutritional Science (University of Potsdam), where 12 healthy volunteers (six men and six women) with conventional nutrition habits were recruited. All participants gave written informed consent. The mean age of the test group was 31.6 ± 4.6 years (range: 25–42 years), and the mean body weight was 76.4 ± 10.0 kg (range: 61–94 kg). To guarantee that urinary excretion of MEMA was solely attributed to the consumption of the basil pesto served, all volunteers were asked to avoid ME-containing food 2 days before and after the consumption of the study meal. Therefore, they received an information sheet specifying potential ME sources. After overnight fasting, the participants consumed a meal comprising 100 g of self-made pesto containing 30 g of basil (equal to 1.7 mg of ME; recipe see Table S2) and 200 g of pasta. No further restrictions were exerted. To ensure proper urine sampling, the volunteers were encouraged to drink beverages as they preferred. Urine was collected quantitatively in capped polyethylene containers prior to the controlled exposure and during the following intervals: 0–1, 1–2, 2–3, 3–4, 4–5, 5–6, 6–8, 8–10, 10–12, 12–24, 24–36, and 36–48 h. After the volumes were measured, the urine was aliquoted in two 15 mL reaction tubes per time interval and stored at −20 °C until analysis.\n“System 2” was configured as follows: an HPLC 1100 (Agilent Technologies) was connected to a QTrap6500 triple quadrupole-hybrid ion trap mass spectrometer (Sciex, Darmstadt, Germany) equipped with an electrospray ionization source operating in negative mode. The chromatographic separation of the analytes was performed by ion pair chromatography on a Nucleoshell RP 18plus column (2.0 × 150 mm, 2.7 μm; Macherey-Nagel). The eluents were water containing 10 mM tributylamine and 10 mM acetic acid (eluent A) and acetonitrile (eluent B). The flow rate of the gradient (0 → 1 min: 2% eluent B; 1 → 8 min: 2 → 15% eluent B; 8 → 17.5 min: 15 → 35% eluent B; 17.5 → 18 min: 35 → 100% eluent B; 18 → 20 min: 100% eluent B; 20 → 20.1 min: 100 → 2% eluent B; 20.1 → 23 min: 2% eluent B) was 0.5 mL/min. […] The MRM mode was employed for quantitative analysis with the declustering potential and the entrance potential at −30 and −10 V, respectively. For the quantifier mass transitions of E-3′-MEMA (m/z 338.1 → 209.1) and d6-E-3′-MEMA (m/z 344.1 → 215.1), a collision energy of −20 V and a cell exit potential of −5 V were used. […]"}, "human topoisomerase I": {"tested_on": "human topoisomerase I", "parameters": "method as in PMID 26542539", "conditions": "cited from earlier work"}}, "note": "Values joined by “and” are separate entries in the source; they are usually repeats but may differ in a detail not shown here. Equal entries are not always repeated."}
{"smiles": "COc1ccc(C(=O)NCC(=O)O)cc1OC", "note": "[3,4-dimethoxybenzoylglycine]", "values": [{"measurement": "urinary metabolite of ME, share of the dose", "setting": "[1]", "result": "30 % of the dose"}]}
{"smiles": "C=CCc1cc(OC)c(OC)cc1O", "note": "[6-hydroxy-ME]", "values": [{"measurement": "contribution of the metabolite to the metabolism of ME (sum of all metabolites)", "setting": "[2]", "result": "0–27.4%"}, {"measurement": "contribution of 6-hydroxy-ME to the metabolism of ME in human liver microsomes", "setting": "[3]", "result": "0–3.4%"}, {"measurement": "urinary metabolite of ME, share of the dose", "setting": "[1]", "result": "2 % of the dose"}, {"measurement": "contribution of the metabolite to ME metabolism calculated from Vmax values", "setting": "[4]", "result": "3.9–4.7%"}]}
{"smiles": "COc1ccc(CC(O)CO)cc1OC", "note": "(stereo not drawn) [2′,3′-dihydroxy-2′,3′-dihydro-ME]", "values": [{"measurement": "contribution of the metabolite to ME metabolism calculated from Vmax values", "setting": "[4]", "result": "21.8–44.0%"}]}
{"smiles": "C=CCc1ccc(OC)c(OC)c1", "note": "[ME, Methyleugenol]", "values": [{"measurement": "share of the dose of ME converted via 1′-sulfooxy-ME to 3′-hydroxy-MIE (suggested)", "setting": "[5]", "result": "14.3–41.7%"}, {"measurement": "half-life of elimination of ME from serum", "setting": "[6]", "result": "about 90 min"}, {"measurement": "time of peak serum levels of ME after the meal", "setting": "[6]", "result": 5, "unit": "min"}, {"measurement": "reduction of DNA adduct formation by ME in mouse liver by genetic knockout of SULT1A1", "setting": "DNA [7]; mouse, in vivo", "result": 99, "unit": "%"}, {"measurement": "induction of UDS by ME in the presence of the SULT1 inhibitor pentachlorophenol", "setting": "[8]", "result": "fully suppressed"}, {"measurement": "contribution of 1′-hydroxylation to hepatic ME metabolism at low substrate concentration", "setting": "human CYPs", "result": 38.4, "unit": "%"}, {"measurement": "contribution of 2′,3′-epoxidation to hepatic ME metabolism at low substrate concentration", "setting": "human CYPs", "result": 58.8, "unit": "%"}]}
{"smiles": "COc1ccc(C(=O)O)cc1OC", "note": "[3,4-dimethoxybenzoic acid]", "values": [{"measurement": "urinary metabolite of ME, share of the dose", "setting": "[1]", "result": "2 % of the dose"}]}
{"smiles": "C=CCc1ccc(O)c(OC)c1", "note": "[Eugenol, eugenol]", "values": [{"measurement": "urinary metabolite of ME in urine treated with glucuronidase/sulfatase, share of the dose", "setting": "[1]", "result": "7 % of the dose"}]}
{"smiles": "C=CC(O)c1ccc(OC)c(OC)c1", "note": "(stereo not drawn) [1′-hydroxy-ME]", "values": [{"measurement": "catalytic efficiency of glucuronidation, factor lower in human than in male rat liver microsomes", "setting": "[9]", "result": 125, "unit": "times"}, {"measurement": "contribution of the metabolite to the metabolism of ME (sum of all metabolites)", "setting": "[2]", "result": "36.4–69.4%"}, {"measurement": "DNA adduct levels in mice carrying a human SULT1A1–1A2 transgene compared to wild-type mice", "setting": "DNA [7]", "result": "nine times higher"}, {"measurement": "potency in induction of hepatomas and formation of DNA adducts in mouse liver, compared with ME", "setting": "DNA [7]", "result": "more potent than ME"}, {"measurement": "contribution of the metabolite to ME metabolism calculated from Vmax values", "setting": "[4]", "result": "36.2–50.1%"}, {"measurement": "efficiency of human SULT1A1 in activation to a mutagen relative to its mouse orthologue", "setting": "SULT1A1", "result": "about 3 times"}]}
{"smiles": "COc1ccc(C(O)CC(=O)O)cc1OC", "note": "(stereo not drawn) [3-hydroxy-3-(3,4-dimethoxyphenyl)propionic acid]", "values": [{"measurement": "urinary metabolite of ME, share of the dose", "setting": "[1]", "result": "2 % of the dose"}]}
{"smiles": "COc1ccc(C=CC(=O)NCC(=O)O)cc1OC", "note": "[3,4-dimethoxycinnamoylglycine]", "values": [{"measurement": "urinary metabolite of ME, share of the dose", "setting": "[1]", "result": "24 % of the dose"}]}
{"smiles": "COc1ccc(C=CCNc2nc3c(ncn3[C@H]3C[C@H](O)[C@@H](CO)O3)c(=O)[nH]2)cc1OC", "note": "[N^2-(methylisoeugenol-3′-yl)-2′-deoxyguanosine]", "values": [{"measurement": "human lung samples with DNA adducts present", "setting": "DNA [10]", "result": "10 out of 10"}, {"measurement": "human liver samples with DNA adducts present", "setting": "DNA [10]; surgical human liver samples", "result": "150 out of 151"}]}
{"smiles": "COc1ccc(C=CCSC[C@H](NC(C)=O)C(=O)O)cc1", "note": "[mercapturic acid of estragole, N-acetyl-S-[3′-(4-methoxyphenyl)allyl]-L-Cys]", "values": [{"measurement": "urinary excretion of the mercapturic acid as share of intake", "setting": "[11]", "result": 13.2, "unit": "ppm"}]}
{"smiles": "COc1ccc(C=CCSC[C@H](NC(C)=O)C(=O)O)cc1OC", "note": "[E-3′-MEMA, N-acetyl-S-[3′-(3,4-dimethoxyphenyl)allyl]-L-cysteine]", "values": [{"measurement": "total amount of E-3′-MEMA excreted, range among 12 participants", "setting": "[12]; 1.7 mg ME in basil pesto", "result": "3–274 ng/person"}, {"measurement": "interindividual variability of E-3′-MEMA excretion, factor between highest and lowest values", "setting": "[12]; 12 participants", "result": "~80"}, {"measurement": "E-3′-MEMA ratio of ME intake", "setting": "[12]; individual participant, urine 0–48 h after 100 g basil pesto containing 1.7 mg ME", "result": "33 ppm and 20 ppm and 85 ppm and 14 ppm and 1 ppm and 2 ppm and 4 ppm and 16 ppm and 6 ppm and 11 ppm"}, {"measurement": "E-3′-MEMA total urinary excretion", "setting": "[12]; individual participant, urine 0–48 h after 100 g basil pesto containing 1.7 mg ME, sum of all samples with concentration > LOD", "result": "105 ng and 63 ng and 274 ng and 44 ng and 3 ng and 6 ng and 12 ng and 51 ng and 18 ng and 36 ng and 20 ng and 52 ng"}]}
{"smiles": "Cc1ccc(CC(=O)O)cc1C", "note": "[3,4-Dimethylphenylacetic acid]", "values": [{"measurement": "urinary metabolite of ME, share of the dose", "setting": "[1]", "result": "3 % of the dose"}]}
{"smiles": "COc1ccc(CC(O)C(=O)O)cc1OC", "note": "(stereo not drawn) [2-hydroxy-3-(3,4-dimethoxyphenyl)propionic acid]", "values": [{"measurement": "urinary metabolite of ME, share of the dose", "setting": "[1]", "result": "20 % of the dose"}]}
{"smiles": "COc1ccc(/C=C/C=O)cc1OC", "note": "[3′-oxo-MIE]", "values": [{"measurement": "contribution of the metabolite to the metabolism of ME (sum of all metabolites)", "setting": "[2]", "result": "0–6.8%"}, {"measurement": "effect on human topoisomerase I activity in vitro", "setting": "human topoisomerase I", "result": "inhibit"}]}
{"smiles": "C=CCc1ccc(OC)c(O)c1", "note": "[chavibetol]", "values": [{"measurement": "urinary metabolite of ME in urine treated with glucuronidase/sulfatase, share of the dose", "setting": "[1]", "result": "4 % of the dose"}]}
{"smiles": "COc1ccc(C=CCO)cc1OC", "note": "[3′-hydroxy-MIE, 3′-hydroxymethylisoeugenol]", "values": [{"measurement": "contribution of the metabolite to the metabolism of ME (sum of all metabolites)", "setting": "[2]", "result": "10.4–42.4%"}, {"measurement": "share of the dose excreted as urinary metabolites that appeared to be formed via 3′-hydroxy-MIE", "setting": "[1]; rats, ME 200 mg/kg", "result": "62 % of the dose"}, {"measurement": "share of the urinary metabolites that appeared to be formed via 3′-hydroxy-MIE", "setting": "[1]; rats, ME 200 mg/kg", "result": 65, "unit": "%"}, {"measurement": "contribution of the metabolite to ME metabolism calculated from Vmax values", "setting": "[4]", "result": "10.3–12.9%"}]}
